This note sets out measurements from patent US12054475B2, “Substituted heterocycles as aldehyde dehydrogenase inhibitors” (KayoThera Inc., priority 2021, dated 2024).

As usually defined, the IC50 is the midpoint of a concentration-inhibition curve.

For series [1], the system named is T3-MCA fibrosarcoma cell line allografts. The series can be described thus: T3-MCA fibrosarcoma allograft study. In kind it is in vivo, C57BL6 syngeneic mice. Particulars: for tolerability / tumor growth: oral, 40 mg/kg once daily for twelve days. On the procedure: In one allograft study, T3-MCA fibrosarcoma cell line allografts were implanted subcutaneously into C57BL6 syngeneic mice. […] Tumor volume were measured on day 8, 14, and 17 post inoculation for each group, and tumor mass were measured at the end of the study.
In another allograft study, T3-MCA fibrosarcoma cell line allografts were implanted subcutaneously into C57BL6 syngeneic mice.

The target of series [2] is T1, hALDH1a2 (Homo sapiens (Human), UniProt O94788). Nature of the series: Aldh1a2 enzyme inhibition assay (recombinant enzyme, resorufin fluorescence). Format: biochemical.
For the next series, the target named is hALDH1a3 (Homo sapiens (Human), UniProt P47895). Nature of the series: Cell based assay: STRA6 mRNA by q-rtPCR in MCF7 cells expressing ALDH1a3. To be noted: 20 hours incubation, read-out: IC50 (Aldh1a3), STRA6 mRNA levels. The procedure: (§1) MCF7 cells were stably transduced with lentiviral vectors encoding human ALDH1a1, ALDH1a2 or ALDH1a3 or Vector control and selected by puromycin to establish stable cultures that were verified for overexpression by western blotting and Aldefluor activity. Cells were plated into 6 cm plates in regular DMEM media supplement with […]. At the beginning of the assay, cells were washed with PBS for 5 minutes followed by addition of compound solvated into DMEM media with 10% FBS or corresponding DMSO controls, maintaining DMSO at a constant concentration of 0.1% across all samples. Following 20 hours of incubation at 37 C, cells were lysed and RNA was extracted using a Qiagen RNAeasy kit. cDNA was synthesized using the Superscript IV kit and retinoid activation was measured using STRA6 mRNA levels as a proxy as measured by q-rtPCR.

The next series has as its target mALDH1a2 (Mus musculus (Mouse), UniProt Q62148). The series can be described thus: Aldh1a2 enzyme inhibition assay (recombinant enzyme, resorufin fluorescence). In kind it is biochemical. The text has this:
Recombinant enzyme and inhibitor added immediately before assay. Reaction rate measured by resorufin fluorescence.

Series [3] has as its target T1, hALDH1a2. Nature of the series: Cell based assay: STRA6 mRNA by q-rtPCR in MCF7 cells expressing ALDH1a2. To be noted: 20 hours incubation, read-out: IC50 (ALDH1a2), STRA6 mRNA levels. The procedure:
as §1

Series [4] has as its system T3-MCA fibrosarcoma cell line allografts. The series can be described thus: Combination with anti-PD-1 in T3-MCA fibrosarcoma allografts. Format: in vivo, C57BL6 syngeneic mice. To be noted: for tumor growth as a single agent: 40 mg/kg daily equivalent, oral medicated diet, Day 9 to Day 25. On the procedure: T3-MCA fibrosarcoma cell line allografts were implanted subcutaneously into C57BL6 syngeneic mice. […] Medicated diet was initiated at Day 9 after mice were randomized and continued until termination at Day 25. Anti-PD-1 antibody was administered by intraperitoneal injection at Day 11, 14, 18 and 21 by a 200 uL injection of a 1 mg/mL solution in saline. Tumor volume were measured on day 14, 18, 22, and 25 post inoculation for each group.

The subject of series [5] is K-Ras, p53 −/− undifferentiated pleiomorphic sarcoma cell line allografts. The series can be described thus: K-Ras, p53 -/- undifferentiated pleiomorphic sarcoma allograft study. Particulars: single agent, 20 days; Compound 140 40 mg/kg intraperitoneal, MBE1.5 25 mg/kg daily equivalent in diet. Format: in vivo, C57BL6 syngeneic mice. On the procedure: In another allograft study, K-Ras, p53 −/− undifferentiated pleiomorphic sarcoma cell line allografts were implanted subcutaneously into C57BL6 syngeneic mice. […] Tumor volume were measured on day 14, 17, and 24 post inoculation for each group, and tumor mass were measured at the end of the study.

Series [6] is described as follows: Pharmacokinetic profiling in mice.
The test system of series [7] is primary tumors and metastasis. The series can be described thus: Mouse xenograft models, ALDH1a3 inhibitor in conjunction with paclitaxel. In kind it is in vivo. Particulars: with chemotherapy agent paclitaxel.

SMILES strings stand for the structures. “And” between values parts separate entries of the source, which are not always exact repeats. Equal values may be shown once.

Sequence of hALDH1a3 (P47895 whole entry): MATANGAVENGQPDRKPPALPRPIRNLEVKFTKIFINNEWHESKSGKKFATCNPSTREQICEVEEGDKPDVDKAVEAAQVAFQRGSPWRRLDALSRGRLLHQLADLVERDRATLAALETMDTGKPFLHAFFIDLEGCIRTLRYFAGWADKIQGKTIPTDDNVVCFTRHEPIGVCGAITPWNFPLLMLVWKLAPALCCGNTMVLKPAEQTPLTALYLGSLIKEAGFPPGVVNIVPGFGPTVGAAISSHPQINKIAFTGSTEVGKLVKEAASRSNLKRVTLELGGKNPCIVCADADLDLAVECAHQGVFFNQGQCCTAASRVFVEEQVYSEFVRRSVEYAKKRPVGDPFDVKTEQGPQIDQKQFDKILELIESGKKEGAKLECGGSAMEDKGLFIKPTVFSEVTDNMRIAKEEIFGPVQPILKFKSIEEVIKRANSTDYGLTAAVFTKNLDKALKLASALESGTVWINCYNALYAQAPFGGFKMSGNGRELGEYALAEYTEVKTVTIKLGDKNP
T1 sequence (O94788 whole entry): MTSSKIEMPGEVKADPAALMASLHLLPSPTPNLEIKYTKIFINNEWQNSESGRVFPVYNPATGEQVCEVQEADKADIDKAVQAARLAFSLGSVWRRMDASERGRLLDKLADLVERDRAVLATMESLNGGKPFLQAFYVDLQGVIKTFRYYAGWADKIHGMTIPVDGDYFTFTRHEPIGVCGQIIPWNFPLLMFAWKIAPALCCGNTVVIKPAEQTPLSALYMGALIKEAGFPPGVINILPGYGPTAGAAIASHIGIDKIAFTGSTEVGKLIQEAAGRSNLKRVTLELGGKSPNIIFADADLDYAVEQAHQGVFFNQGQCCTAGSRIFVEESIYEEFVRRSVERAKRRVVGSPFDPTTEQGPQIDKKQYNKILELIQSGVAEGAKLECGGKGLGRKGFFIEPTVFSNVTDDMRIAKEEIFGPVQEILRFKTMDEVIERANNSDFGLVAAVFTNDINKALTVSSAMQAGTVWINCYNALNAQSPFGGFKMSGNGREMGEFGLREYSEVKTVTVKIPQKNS
Sequence of mALDH1a2 (Q62148 whole entry): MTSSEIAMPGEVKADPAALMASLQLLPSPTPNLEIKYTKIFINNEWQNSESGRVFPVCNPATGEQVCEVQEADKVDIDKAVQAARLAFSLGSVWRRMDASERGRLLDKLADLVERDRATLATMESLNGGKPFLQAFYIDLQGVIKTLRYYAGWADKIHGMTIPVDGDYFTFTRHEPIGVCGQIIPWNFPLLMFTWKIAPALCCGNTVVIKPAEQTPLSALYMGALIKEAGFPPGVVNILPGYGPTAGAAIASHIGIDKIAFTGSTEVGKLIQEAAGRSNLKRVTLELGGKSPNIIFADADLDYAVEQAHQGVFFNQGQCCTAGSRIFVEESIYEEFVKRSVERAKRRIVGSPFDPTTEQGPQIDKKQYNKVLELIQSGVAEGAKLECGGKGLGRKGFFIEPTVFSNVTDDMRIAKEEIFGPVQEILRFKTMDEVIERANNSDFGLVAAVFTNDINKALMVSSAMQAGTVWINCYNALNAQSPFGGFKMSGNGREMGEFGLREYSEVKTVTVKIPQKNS

For `Cc1cc(NC(=O)c2ccncc2CC(F)(F)F)cc2c1NC(=O)CC2` [Compound 151, N-(8-methyl-2-oxo-3,4-dihydro-1H-quinolin-6-yl)-3-(2,2,2-trifluoroethyl)pyridine-4-carboxamide], the tolerability result in series [1] is on record as “excellent tolerability”. Besides, in series [1], the tumor growth entry was “successful inhibition of tumor growth”. Moreover, the IC50 on hALDH1a2 [2] was 75 nM; on hALDH1a3, 1.25 nM and < 50 nM; at mALDH1a2 it was 86 nM; at hALDH1a2 [3], 55.3 nM and < 50 nM.

Consider `CCc1cnccc1C(=O)Nc1cc(C)c2c(c1)CCC(=O)N2` [Compound 140, 3-ethyl-N-(8-methyl-2-oxo-3,4-dihydro-1H-quinolin-6-yl)pyridine-4-carboxamide], for which the “tumor growth, combined treatment with anti-PD-1 antibody” value in [4] (40 mg/kg daily equivalent oral medicated diet plus anti-PD-1 200 microgram i.p. Day 11, 14, 18, 21) is given as “synergy with anti-PD-1 antibody in causing tumor regression”. For the same compound, the “tumor growth as a single agent” value is reported as “successful inhibition of tumor growth as a single agent” in [4] and “inhibits tumor growth as a single agent” in series [4] (listed as compound 140). Besides, in series [1], the tolerability entry is “excellent tolerability”. The tumor growth result in series [1] is reported as “successful inhibition of tumor growth”. The “tumor growth (caliper measurement, tumor mass at endpoint)” value in series [1] (single agent, once daily for 9 days, Compound 140 40 mg/kg intraperitoneal, MBE1.5 25 mg/kg daily equivalent in diet) is reported as “successful inhibition of tumor growth as a single agent”; in [5] it was “successful inhibition of tumor growth as a single agent”. Also, the IC50 was 99 nM on hALDH1a2 [2]; 6.97 nM and < 50 nM at hALDH1a3; 96 nM on mALDH1a2; 27.6 nM and < 50 nM at hALDH1a2 [3].

As to `CCc1cnccc1C(=O)Nc1cc2c(cc1F)NC(=O)CC2` [MBE1], the IC50 came to 3.67 nM on hALDH1a3 and 1670 nM on hALDH1a2 [3]. The “cage side observations, adverse reactions” value in series [6] (0 hours to 24 hours post-dosing, mice) is “no adverse reactions”. Moreover, the “plasma half-life, IV bolus dosing” value in [6] (male CD-1/C57BL/6 mice, 1 mg/kg intravenous) came to 1.79 h. The “plasma half-life, PO oral gavage dosing” value in series [6] (male CD-1/C57BL/6 mice, 10 mg/kg oral gavage) worked out at 1.37 h. In addition, the oral bioavailability in [6] (male CD-1/C57BL/6 mice, 10 mg/kg oral gavage, 1 mg/kg intravenous) is 88%. Also, in series [6] (oral gavage (PO) and intravenous (IV) administration, n=3 mice per group), the “time plasma concentrations exceed 5-fold the IC50” value is greater than 10 h. For the same compound, the “efficacy in conjunction with paclitaxel” value in series [7] is on record as “effective in treating established metastatic diseases”.
